From patent US20250243180A1, “TARGETED PROTEIN DEGRADATION” (Monte Rosa Therapeutics AG, priority 2023, published 2025)

Key:
[1] = test system: New Zealand White rabbits, MSU crystal gout model; test: In vivo rabbit gout model (intra-articular MSU): joint swelling and CD31 staining; details: daily prophylactic treatment
Method: MSU crystals were prepared by dissolving uric acid (Aladdin, cat #U105582) in boiling water (1 g in 200 mL with 6 mL of 1 N NaOH). PH value was adjusted to 7.2 by HCl. The solution was stirred and cooled to room temperature and stored at 4° C. overnight. The precipitate was filtered with filter paper and dried under low heat to obtain MSU crystals. New Zealand White rabbits received an intra-articular injection of 1 mL of MSU crystals (50 mg/mL) into both knees (MSU group) or PBS (as vehicle, control group). n=10 for MSU groups; n=6 for PBS group.
For immunohistochemistry, bone sections were stained with anti-CD31 (Abcam #ab9498) diluted at 1:500. The nuclei were stained with hematoxylin. Slides were scanned using LEICA Aperio GT450 at 400× magnification. The number of positive blood vessels were counted blindly.
(a) To determine NEK7 degradation, spleens and peripheral blood mononuclear cells (PBMC) were analyzed by JESS for NEK7 and normalized to α-Tubulin from five representative animals. (b) The degree of joint swelling was determined by caliper measurements at the indicated time points. (c) Rabbit bone tissue sections were stained and quantified for anti-CD31 immunohistochemistry. Results expressed as mean±SEM. Statistical analysis was performed using two-way ANOVA. The difference was considered significant when p<0.05.

IL-1β = IL-1β in human monocyte-derived macrophages, LPS/MSU stimulation; type: cell-based; details: 24 h pre-treatment, LPS + MSU 6 h, eight donors
Method: (§1) Human monocytes were enriched and isolated from a buffy coat of whole blood with a RosetteSep™ Human Monocyte Enrichment Cocktail (Cat.No. 15068, StemCell) and Ficoll-Plaque PLUS (Cat.No. H8889, Sigma). Monocytes were differentiated into macrophages by treatment with 100 ng/mL M-CSF for 6 days at 37° C., 5% CO2. Differentiated macrophages were seeded overnight (50,000 cells/well) in 100 μL of medium in a 96-well white-bottom plate at 37° C., 5% CO2. Cells were treated with a concentration range of MGD or the NLRP3 inhibitor selnoflast (Cat.No. HY-132831, MedChemExpress) for 24 h prior to stimulation with monosodium urate crystals (MSU). Macrophages were stimulated with […] lipopolysaccharide (LPS) and 0.2 mg/mL MSU for 6 h. Medium of stimulated macrophages were collected and assayed for caspase-1 activity directly (Promega G9951) as well as IL-1β (Promega W6010), according to manufacturer's instructions.
(§2) (a, b) Human monocyte-derived macrophages pre-treated with a dose-response of Compound 14 or selnoflast (NLRP3 inhibitor) for 24 h and stimulated with a combination of lipopolysaccharide (LPS) and monosodium urate crystals (MSU) for 6 h prior to supernatant collection. Monocytes were isolated from eight human donors. Caspase-1 (a) and IL-1β (b) in the supernatant are measured and data are expressed as percentage relative to mean values of DMSO conditions for each donor (technical triplicates). Means of eight donors are plotted and analyzed using a four-parameter logistic regression model.

Caspase-1 activity = Caspase-1 activity in human monocyte-derived macrophages, LPS/MSU stimulation; type: cell-based; details: 24 h pre-treatment, LPS + MSU 6 h, eight donors
Method: as §1, §2

| SMILES | CD31 staining in bone tissue [1] | joint swelling induced by intra-articular MSU injection [1] | IL-1β Imax (IL-1β) [%] | IC50 (IL-1β; Homo sapiens, Macrophage) [nM] | Caspase-1 activity Imax (Caspase-1 activity) [%] | IC50 (Caspase-1 activity; Homo sapiens, Macrophage) [nM] |
| --- | --- | --- | --- | --- | --- | --- |
| C[C@]12C=CC(=O)C=C1CC[C@@H]1[C@@H]2[C@@H](O)C[C@@]2(C)[C@H]1CC[C@]2(O)C(=O)CO [prednisolone] | improvement | improvement | – | – | – | – |
| CCN1CCC(S(=O)(=O)NC(=O)Nc2c3c(cc4c2CCC4)CCC3)CC1 [selnoflast, reference compound] | improvement | improvement | 79 | 746 | 89 | 843 |
